Target: T1, SIRT1 (Homo sapiens, UniProt Q96EB6)
T1 sequence (Q96EB6 1-747): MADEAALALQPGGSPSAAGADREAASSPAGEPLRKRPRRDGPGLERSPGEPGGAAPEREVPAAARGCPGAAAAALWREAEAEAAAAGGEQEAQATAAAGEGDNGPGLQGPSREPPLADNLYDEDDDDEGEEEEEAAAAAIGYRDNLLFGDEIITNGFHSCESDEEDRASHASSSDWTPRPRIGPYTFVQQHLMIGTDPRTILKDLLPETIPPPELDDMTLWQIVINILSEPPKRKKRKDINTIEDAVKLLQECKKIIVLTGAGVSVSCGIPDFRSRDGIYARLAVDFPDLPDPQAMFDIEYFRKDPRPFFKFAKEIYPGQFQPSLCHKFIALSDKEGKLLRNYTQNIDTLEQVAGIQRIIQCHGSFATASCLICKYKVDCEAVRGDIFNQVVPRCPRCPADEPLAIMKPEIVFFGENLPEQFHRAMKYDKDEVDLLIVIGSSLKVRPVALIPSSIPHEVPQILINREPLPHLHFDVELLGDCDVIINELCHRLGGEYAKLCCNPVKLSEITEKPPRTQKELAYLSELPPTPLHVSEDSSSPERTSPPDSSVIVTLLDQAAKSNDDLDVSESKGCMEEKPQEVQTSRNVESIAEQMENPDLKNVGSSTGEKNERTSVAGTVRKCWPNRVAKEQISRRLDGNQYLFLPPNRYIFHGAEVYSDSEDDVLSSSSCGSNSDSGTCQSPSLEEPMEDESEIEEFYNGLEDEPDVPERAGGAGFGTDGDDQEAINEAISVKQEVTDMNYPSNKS
Assay: Mass spectrometry based assay to identify modulators of SIRT1 activity (deacetylation of p53-based acetylated peptide)
Type: biochemical
Conditions: 10 nM SIRT1, 0.5 μM peptide substrate, 120 μM βNAD+, 25 minutes at 25° C.; for EC1.5 μM: SIRT1 activation

| Structure (SMILES) | % Fold Act. (percent maximum fold activation) | EC1.5 μM |
| --- | --- | --- |
| Cn1c(-c2ccccc2C(F)(F)F)nc2c(C(=O)Nc3ccccn3)cccc2c1=O [Compound 212, 3-methyl-4-oxo-N-(pyridin-2-yl)-2-(2-(trifluoromethyl)phenyl)-3,4-dihydroquinazoline-8-carboxamide] | A (Fold activation>200%) | B (EC1.5 1-25 μM) |
| O=C(Nc1cnccn1)c1cccc2c(=O)cc(-c3cccc(C(F)F)c3)[nH]c12 [Compound 432] | A (Fold activation>200%) | A (EC1.5<1.0 μM) |
| Cn1c(-c2cccc(C(F)(F)F)c2)nc2c(C(=O)Nc3cncc(CN4CCOCC4)c3)cccc2c1=O [Compound 300] | A (Fold activation>200%) | B (EC1.5 1-25 μM) |
| Cn1c(-c2cccc(C(F)F)c2)nc2c(NC(=O)c3cnccn3)cccc2c1=O [Compound 310] | A (Fold activation>200%) | A (EC1.5<1.0 μM) |
| O=C(Nc1cnccn1)c1cccc2c(=O)cc(-c3cccc(Cl)c3)[nH]c12 [Compound 434] | B (Fold Activation<200%) | A (EC1.5<1.0 μM) |
| O=C(Nc1nccs1)c1cccc2c(=O)cc(-c3ccccc3OC(F)(F)F)[nH]c12 [Compound 430] | A (Fold activation>200%) | A (EC1.5<1.0 μM) |
| O=C(Nc1cccc2c(=O)cc(-c3ccccc3C(F)(F)F)[nH]c12)c1cnccn1 [Compound 445] | A (Fold activation>200%) | A (EC1.5<1.0 μM) |
| Cn1c(-c2cccc(C(F)(F)F)c2)nc2c(NC(=O)c3ncccn3)cccc2c1=O [Compound 249] | A (Fold activation>200%) | A (EC1.5<1.0 μM) |
| Cn1c(-c2cccc(C(F)(F)F)c2)nc2c(NC(=O)c3cccnc3OCC(O)CO)cccc2c1=O (stereo not drawn) [Compound 334] | A (Fold activation>200%) | B (EC1.5 1-25 μM) |
| Cn1c(-c2cccc(C(F)(F)F)c2)nc2c(NC(=O)c3cccc(N4CCOCC4)c3)cccc2c1=O [Compound 330] | A (Fold activation>200%) | A (EC1.5<1.0 μM) |
| O=C(Nc1ccncc1)c1cccc2c(=O)cc(-c3cccc(C(F)(F)F)c3)[nH]c12 [Compound 402] | A (Fold activation>200%) | A (EC1.5<1.0 μM) |
| Cn1c(-c2cccc(C(F)(F)F)c2)nc2c(C(=O)Nc3cccc(CN4CC[C@@H](F)C4)n3)cccc2c1=O [Compound 345] | A (Fold activation>200%) | A (EC1.5<1.0 μM) |
| O=C(Nc1ccccn1)c1cccc2c(=O)[nH]c(-c3cccc(C(F)(F)F)c3)nc12 [Compound 218] | A (Fold activation>200%) | A (EC1.5<1.0 μM) |
| Cn1c(-c2cccc(S(C)(=O)=O)c2)nc2c(C(=O)Nc3ccccn3)cccc2c1=O [Compound 222] | A (Fold activation>200%) | B (EC1.5 1-25 μM) |
| Cn1c(-c2cccc(C(F)(F)F)c2)nc2c(NC(=O)c3cccc(CN4CCOCC4)n3)cccc2c1=O [Compound 332] | A (Fold activation>200%) | A (EC1.5<1.0 μM) |
| Cn1c(-c2cccc(CN3CCCC3)c2)nc2c(C(=O)Nc3ccccn3)cccc2c1=O [Compound 276] | B (Fold Activation<200%) | B (EC1.5 1-25 μM) |
| CN1CCCCC1C(=O)Nc1cccc2c(=O)n(C)c(-c3cccc(C(F)(F)F)c3)nc12 (stereo not drawn) [Compound 343] | B (Fold Activation<200%) | C (EC1.5>25 μM) |
| Cn1c(-c2cccc(C(F)(F)F)c2)nc2c(C(=O)Nc3cccc(OCC(O)CO)c3)cccc2c1=O (stereo not drawn) [Compound 360] | A (Fold activation>200%) | A (EC1.5<1.0 μM) |
| CC(C)n1c(-c2cccc(C(F)(F)F)c2)nc2c(NC(=O)c3cnccn3)cccc2c1=O [Compound 267] | A (Fold activation>200%) | A (EC1.5<1.0 μM) |
| Cn1c(-c2ccccc2)nc2c(C(=O)Nc3ccccn3)cccc2c1=O [Compound 210] | B (Fold Activation<200%) | B (EC1.5 1-25 μM) |
| Cn1c(-c2ccc(OC(F)(F)F)cc2)nc2c(C(=O)Nc3ccccn3)cccc2c1=O [Compound 211] | B (Fold Activation<200%) | C (EC1.5>25 μM) |

| Structure (SMILES) | % Fold Act. (percent maximum fold activation) | EC1.5 μM |
| --- | --- | --- |
| Cn1c(-c2cccc(C(F)(F)F)c2)nc2c(NS(=O)(=O)c3ccccn3)cccc2c1=O [Compound 362] | B (Fold Activation<200%) | C (EC1.5>25 μM) |
| O=C(Nc1ccccn1)c1cccc2c(=O)[nH]c(-c3ccccc3C(F)(F)F)nc12 [Compound 321] | A (Fold activation>200%) | B (EC1.5 1-25 μM) |
| Cn1c(-c2cccc(C(F)(F)F)c2)nc2c(C(=O)Nc3ccnc(CN4CCCC4)n3)cccc2c1=O [Compound 359] | A (Fold activation>200%) | B (EC1.5 1-25 μM) |
| Cc1nc(C)c(-c2nc3c(NC(=O)c4cnccn4)cccc3c(=O)n2C)s1 [Compound 287, N-(2-(2,4-dimethylthiazol-5-yl)-3-methyl-4-oxo-3,4-dihydroquinazolin-8-yl)pyrazine-2-carboxamide] | A (Fold activation>200%) | B (EC1.5 1-25 μM) |
| CN1CCCC1C(=O)Nc1cccc2c(=O)n(C)c(-c3cccc(C(F)(F)F)c3)nc12 (stereo not drawn) [Compound 331] | B (Fold Activation<200%) | B (EC1.5 1-25 μM) |
| Cn1c(-c2cccc(C(F)(F)F)c2)nc2c(C(=O)Nc3cccc(CN4CCNCC4)n3)cccc2c1=O [Compound 348] | A (Fold activation>200%) | A (EC1.5<1.0 μM) |
| Cn1c(-c2cccc(C(F)(F)F)c2)nc2c(NC(=O)c3ccncc3)cccc2c1=O [Compound 237] | B (Fold Activation<200%) | B (EC1.5 1-25 μM) |
| O=C(Nc1cccc2c(=O)cc(-c3cccc(Cl)c3)[nH]c12)c1cnccn1 [Compound 447] | A (Fold activation>200%) | A (EC1.5<1.0 μM) |
| Cn1c(-c2ccc(C#N)cc2)nc2c(C(=O)Nc3ccccn3)cccc2c1=O [Compound 254] | B (Fold Activation<200%) | C (EC1.5>25 μM) |
| Cn1c(-c2cccc(C(F)(F)F)c2)nc2c(NC(=O)c3cscn3)cccc2c1=O [Compound 201] | B (Fold Activation<200%) | A (EC1.5<1.0 μM) |
| O=C(Nc1cccc2c(=O)cc(-c3cccc(Cl)c3)[nH]c12)c1cscn1 [Compound 446] | A (Fold activation>200%) | B (EC1.5 1-25 μM) |
| O=C(Nc1cccnc1)c1cccc2c(=O)cc(-c3ccccc3Cl)[nH]c12 [Compound 441] | A (Fold activation>200%) | B (EC1.5 1-25 μM) |
| O=C(Nc1cccnc1)c1cccc2c(=O)cc(-c3ccccc3OC(F)F)[nH]c12 [Compound 440] | A (Fold activation>200%) | B (EC1.5 1-25 μM) |
| CCCn1c(-c2cccc(C(F)(F)F)c2)nc2c(C(=O)Nc3ccccn3)cccc2c1=O [Compound 270] | B (Fold Activation<200%) | C (EC1.5>25 μM) |
| Cn1c(-c2cccc(C(F)(F)F)c2)nc2c(NC(=O)c3ccncn3)cccc2c1=O [Compound 245] | A (Fold activation>200%) | A (EC1.5<1.0 μM) |
| Cn1c(-c2ccccc2S(C)(=O)=O)nc2c(C(=O)Nc3ccccn3)cccc2c1=O [Compound 221] | A (Fold activation>200%) | B (EC1.5 1-25 μM) |
| Cn1cnc(C(=O)Nc2cccc3c(=O)n(C)c(-c4cccc(C(F)(F)F)c4)nc23)c1 [Compound 246] | A (Fold activation>200%) | A (EC1.5<1.0 μM) |
| Cn1c(-c2cccc(OC(F)(F)F)c2)nc2c(C(=O)Nc3nccs3)cccc2c1=O [Compound 200] | B (Fold Activation<200%) | B (EC1.5 1-25 μM) |
| Cn1c(-c2cccc(C(F)(F)F)c2)nc2c(NC(=O)C3CCCC(=O)N3)cccc2c1=O (stereo not drawn) [Compound 365] | A (Fold activation>200%) | B (EC1.5 1-25 μM) |
| Cn1c(-c2ccc(N3CCOCC3)cc2)nc2c(C(=O)Nc3ccccn3)cccc2c1=O [Compound 217] | A (Fold activation>200%) | B (EC1.5 1-25 μM) |
| O=C(Nc1cccc2c(=O)cc(-c3cccc(C(F)(F)F)c3)[nH]c12)c1cncnc1 [Compound 421] | A (Fold activation>200%) | B (EC1.5 1-25 μM) |

— US9326986B2, “Quinazolinone, quinolone and related analogs as sirtuin modulators” (GLAXOSMITHKLINE LLC, priority 2008, dated 2016)
